Data from patent publication US20060111436A1, “Compositions and treatments for modulating kinase and/or HMG-CoA reductase” (priority 2004, published 2006).

Experiments:
Type in all cases: biochemical
[1] = molecular target: T1, human recombinant p38α protein kinase (Homo sapiens, UniProt Q16539); experiment: Cell-free p38α MAP kinase modulation assay (phosphorylation of myelin basic protein); settings: for p38α AC50 / AC50: concentration to activate phosphorylation of myelin basic protein by 50%, ANO = activation not observed at any concentration tested; for IC50 / p38α IC50: concentration to inhibit phosphorylation of myelin basic protein by 50%, INO = inhibition not observed at any concentration tested; for p38α Max % Act: maximum observed increase in p38 MAP kinase activity in presence of compound; for effect on p38α MAP kinase activity, in words: text summary of Table I; for p38α concentration at which maximum increase in activity is observed: value in parentheses in Max % Act
T1 construct: purchased UBI 14-251; host or cells: E. coli
Procedure: In vitro cell-free p38α MAP kinase modulation assays were conducted by the method as described in Clerk et al., supra, (1998). Briefly, human recombinant p38α protein kinase expressed in E. Coli (UBI #14-251) was used. Myelin basic protein (MBP, UBI #13-110) was employed as substrate, and microtiter plate wells were coated with MBP (0.01 mg/ml) overnight at 4° C. Candidate compound and/or vehicle was preincubated with 0.075 μg/mL enzyme in modified HEPES buffer pH 7.4 at 25° C. for 15 minutes. The reaction was initiated by addition of 100 μM ATP and allowed to proceed for another 60 minutes. The reaction was terminated by aspirating the solution. Phosphorylated MBP was detected by incubation with a mouse monoclonal IgG2a anti-phosphoMBP antibody. Bound anti-phosphoMBP antibody was quantitated by incubation with a HRP conjugated goat anti-mouse IgG.

[2] = molecular target: T2, recombinant human p38γ MAP kinase (Homo sapiens, UniProt P53778); experiment: Cell-free p38γ MAP kinase modulation assay (phosphorylation of myelin basic protein); settings: for p38γ Max % Act: maximum observed increase in p38 MAP kinase activity in presence of compound; for effect on p38γ MAP kinase activity, in words: text summary of Table I; for p38γ concentration at which maximum increase in activity is observed: value in parentheses under Max % Act
T2 sequence (P53778 1-367): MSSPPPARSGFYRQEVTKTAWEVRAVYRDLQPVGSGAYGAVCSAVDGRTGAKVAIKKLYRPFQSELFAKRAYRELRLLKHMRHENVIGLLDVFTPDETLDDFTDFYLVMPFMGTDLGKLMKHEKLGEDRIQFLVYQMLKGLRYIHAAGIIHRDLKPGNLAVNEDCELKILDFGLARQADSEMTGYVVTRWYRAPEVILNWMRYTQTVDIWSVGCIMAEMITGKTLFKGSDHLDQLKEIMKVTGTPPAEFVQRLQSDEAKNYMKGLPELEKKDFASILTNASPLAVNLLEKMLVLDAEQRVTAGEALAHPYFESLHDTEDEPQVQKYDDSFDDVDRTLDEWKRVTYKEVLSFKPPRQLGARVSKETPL

[3] = molecular target: recombinant human p38β MAP kinase (Homo sapiens, UniProt Q15759); experiment: Cell-free p38β MAP kinase modulation assay (phosphorylation of myelin basic protein); settings: for p38β Max % Act: maximum observed increase in p38 MAP kinase activity in presence of compound; for p38β concentration at which maximum increase in activity is observed: value in parentheses in Max % Act; for AC50: concentration to activate phosphorylation of myelin basic protein by 50%, ANO = activation not observed at any concentration tested; for effect on p38β MAP kinase activity, in words: text summary of Table I
[4] = molecular target: T3, recombinant human p38δ MAP kinase (Homo sapiens, UniProt O15264); experiment: Cell-free p38δ MAP kinase modulation assay (phosphorylation of myelin basic protein); settings: for AC50: concentration to activate phosphorylation of myelin basic protein by 50%, ANO = activation not observed at any concentration tested; for p38δ Max % Act: maximum observed increase in p38 MAP kinase activity in presence of compound; for effect on p38δ MAP kinase activity, in words: text summary of Table I; for p38δ concentration at which maximum increase in activity is observed: value in parentheses under Max % Act
T3 sequence (O15264 1-365): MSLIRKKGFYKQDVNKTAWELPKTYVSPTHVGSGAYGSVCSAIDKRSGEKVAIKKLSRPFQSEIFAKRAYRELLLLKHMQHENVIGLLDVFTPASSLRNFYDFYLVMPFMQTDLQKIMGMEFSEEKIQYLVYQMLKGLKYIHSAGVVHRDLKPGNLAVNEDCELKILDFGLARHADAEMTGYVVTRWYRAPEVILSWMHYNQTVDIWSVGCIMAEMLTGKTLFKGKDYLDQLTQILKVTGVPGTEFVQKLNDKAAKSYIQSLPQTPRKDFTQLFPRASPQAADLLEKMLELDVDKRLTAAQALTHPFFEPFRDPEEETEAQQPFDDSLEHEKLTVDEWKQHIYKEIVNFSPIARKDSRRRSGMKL

[5] = concentration to activate phosphorylation of myelin basic protein by 50%, ANO = activation not observed at any concentration tested
[6] = concentration to inhibit phosphorylation of myelin basic protein by 50%, INO = inhibition not observed at any concentration tested

recombinant human p38β MAP kinase, sequence (Q15759 whole entry): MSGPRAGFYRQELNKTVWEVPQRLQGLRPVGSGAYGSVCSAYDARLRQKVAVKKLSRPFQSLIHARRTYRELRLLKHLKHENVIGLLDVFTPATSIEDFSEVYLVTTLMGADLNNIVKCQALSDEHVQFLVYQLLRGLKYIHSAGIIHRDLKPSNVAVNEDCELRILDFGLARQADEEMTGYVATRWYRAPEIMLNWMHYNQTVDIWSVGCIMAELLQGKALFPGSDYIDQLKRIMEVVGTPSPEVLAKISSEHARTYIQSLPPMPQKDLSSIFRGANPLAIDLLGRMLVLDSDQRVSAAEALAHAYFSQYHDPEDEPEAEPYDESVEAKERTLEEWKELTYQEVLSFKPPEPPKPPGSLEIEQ
T1 sequence (Q16539 whole entry): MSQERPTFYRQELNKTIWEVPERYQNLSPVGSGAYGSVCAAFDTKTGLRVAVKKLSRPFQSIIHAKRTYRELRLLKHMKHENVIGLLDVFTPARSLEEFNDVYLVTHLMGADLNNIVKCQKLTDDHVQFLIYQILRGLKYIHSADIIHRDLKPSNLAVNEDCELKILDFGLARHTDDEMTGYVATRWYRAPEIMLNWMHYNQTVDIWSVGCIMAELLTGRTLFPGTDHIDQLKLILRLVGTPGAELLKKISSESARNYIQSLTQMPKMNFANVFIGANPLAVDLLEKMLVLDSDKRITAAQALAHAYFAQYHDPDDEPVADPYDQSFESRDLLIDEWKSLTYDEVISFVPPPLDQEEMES

With `CC(C)c1c(C(=O)Nc2ccccc2)c(-c2ccccc2)c(-c2ccc(F)cc2)n1CC[C@@H](O)C[C@@H](O)CC(=O)[O-].CC(C)c1c(C(=O)Nc2ccccc2)c(-c2ccccc2)c(-c2ccc(F)cc2)n1CC[C@@H](O)C[C@@H](O)CC(=O)[O-].[Ca+2]` [Atorvastatin calcium, atorvastatin calcium, reference compound] as the compound, how does the “p38α AC50” value [1] read?
Its value is “ANO^d”.

How did the AC50 [2, 5] turn out when `CC(C)c1c(C(=O)Nc2ccccc2)c(-c2ccccc2)c(-c2ccc(F)cc2)n1CC[C@@H]1C[C@@H](O)CC(=O)O1` [Atorvastatin lactone, atorvastatin lactone] was run?
The AC50 was ~10 µM.

And the IC50 [2, 6]?
Its IC50 is ~50 µM.

And the “p38γ Max % Act” value [2]?
The value was 62%.

What about the “effect on p38γ MAP kinase activity, in words” value [2] of the same compound?
The value was “showed both inhibitory and activation activities”.

And the “p38γ concentration at which maximum increase in activity is observed” value [2]?
Its value is “(10 μM)”.

What about the “p38α AC50” value [1] of the same compound?
The value was “ANO”.

What about the IC50 [1] of the same compound?
Its IC50 is 31 µM.

And the IC50 [3, 6]?
The IC50 was 94 µM.

What about the “p38β Max % Act” value [3] of the same compound?
The value was 19%.

And the “p38β concentration at which maximum increase in activity is observed” value [3]?
The value was 10 µM.

What about the AC50 [4] of the same compound?
The AC50 was 30 to 100 µM.

And the IC50 [4, 6]?
Its IC50 is 83 µM.

What about the “p38δ Max % Act” value [4] of the same compound?
Its value is 112%.

And the “p38δ Max % Act” value ([4]; listed as atorvastatin lacton)?
The value was “about 112%”.

And the “effect on p38δ MAP kinase activity, in words” value [4]?
The value was “showed both inhibitory and activation activities”.

And the “p38δ concentration at which maximum increase in activity is observed” value [4]?
The value was “(30 μM)”.

`COCc1c(C(C)C)nc(C(C)C)c(C=CC(O)CC(O)CC(=O)[O-])c1-c1ccc(F)cc1.COCc1c(C(C)C)nc(C(C)C)c(C=CC(O)CC(O)CC(=O)[O-])c1-c1ccc(F)cc1.[Ca+2]` (centres unmarked) [Cerivastatin calcium, reference compound] was tested. Which “p38α AC50” value [1] did it give?
The value was “ANO”.

And the IC50 [1]?
The IC50 was > 30 µM.

How did the AC50 [2, 5] turn out when `COCc1c(C(C)C)nc(C(C)C)c(/C=C/[C@@H]2C[C@@H](O)CC(=O)O2)c1-c1ccc(F)cc1` [Cerivastatin lactone, cerivastatin lactone] was run?
The AC50 was ~5 µM.

What about the “p38γ IC50” value [2, 6] of the same compound?
The value was “INO”.

What about the “p38γ Max % Act” value [2] of the same compound?
Its value is 115%.

What about the “effect on p38γ MAP kinase activity, in words” value [2] of the same compound?
Its value is “can activate”.

What about the “p38γ concentration at which maximum increase in activity is observed” value [2] of the same compound?
Its value is “(100 μM)”.

What about the AC50 [1] of the same compound?
Its AC50 is ~10 µM.

And the “p38α IC50” value [1]?
The value was “INO”.

What about the “p38α Max % Act” value [1] of the same compound?
Its value is 76%.

What about the “effect on p38α MAP kinase activity, in words” value [1] of the same compound?
The value was “can activate”.

And the “p38α concentration at which maximum increase in activity is observed” value [1]?
Its value is 100 µM.

What about the AC50 [3] of the same compound?
The AC50 was ~5 µM.

What about the “p38β IC50” value [3, 6] of the same compound?
The value was “INO”.

What about the “p38β Max % Act” value [3] of the same compound?
The value was 143%.

And the “effect on p38β MAP kinase activity, in words” value [3]?
The value was “can activate”.

And the “p38β concentration at which maximum increase in activity is observed” value [3]?
The value was 10 µM.

What about the AC50 [4] of the same compound?
Its AC50 is ~8 µM.

What about the “p38δ IC50” value [4, 6] of the same compound?
Its value is “INO”.

And the “p38δ Max % Act” value [4]?
Its value is 158%.

And the “effect on p38δ MAP kinase activity, in words” value [4]?
Its value is “can activate”.

And the “p38δ concentration at which maximum increase in activity is observed” value [4]?
The value was “(100 μM)”.

For `CC(C)n1c(/C=C/C(O)CC(O)CC(=O)O)c(-c2ccc(F)cc2)c2ccccc21` (centres unmarked) [Fluvastatin sodium, fluvastatin sodium, reference compound], which “p38α AC50” value [1] is on record?
The value was “ANO”.

Which “p38γ AC50” value [2, 5] does the source give for `O=C([O-])C[C@H](O)C[C@H](O)/C=C/c1c(C2CC2)nc2ccccc2c1-c1ccc(F)cc1.O=C([O-])C[C@H](O)C[C@H](O)/C=C/c1c(C2CC2)nc2ccccc2c1-c1ccc(F)cc1.[Ca+2]` [Pitavastatin calcium, reference compound] here?
Its value is “ANO”.

And the “p38γ IC50” value [2, 6]?
The value was “INO”.

And the “p38α AC50” value [1]?
The value was “ANO”.

What about the IC50 [1] of the same compound?
The IC50 was 101 µM.

For `CC(C)c1nc(N(C)S(C)(=O)=O)nc(-c2ccc(F)cc2)c1/C=C/[C@@H](O)C[C@@H](O)CC(=O)O` [Rosuvastatin sodium, reference compound], which “p38α AC50” value [1] is on record?
The value was “ANO”.

With `CCC(C)(C)C(=O)O[C@H]1C[C@@H](C)C=C2C=C[C@H](C)[C@H](CC[C@@H]3C[C@@H](O)CC(=O)O3)[C@H]21` [Simvastatin lactone, simvastatin lactone] as the compound, how does the AC50 [2, 5] read?
Its AC50 is 3 to 10 µM.

And the “p38γ IC50” value [2, 6]?
Its value is “INO”.

What about the “p38γ Max % Act” value [2] of the same compound?
The value was 127%.

And the “effect on p38γ MAP kinase activity, in words” value [2]?
The value was “can activate”.

What about the “p38γ concentration at which maximum increase in activity is observed” value [2] of the same compound?
The value was “(100 μM)”.

What about the AC50 [1] of the same compound?
The AC50 was ~20 µM.

What about the “p38α IC50” value [1] of the same compound?
The value was “INO^e”.

And the “p38α Max % Act” value [1]?
Its value is 207%.

What about the “effect on p38α MAP kinase activity, in words” value [1] of the same compound?
Its value is “can activate”.

What about the “p38α concentration at which maximum increase in activity is observed” value [1] of the same compound?
The value was 100 µM.

What about the AC50 [3] of the same compound?
The AC50 was ~15 µM.

And the “p38β IC50” value [3, 6]?
The value was “INO”.

What about the “p38β Max % Act” value [3] of the same compound?
The value was 185%.

What about the “effect on p38β MAP kinase activity, in words” value [3] of the same compound?
Its value is “can activate”.

And the “p38β concentration at which maximum increase in activity is observed” value [3]?
Its value is 100 µM.

What about the AC50 [4] of the same compound?
The AC50 was ~2 µM.

And the “p38δ IC50” value [4, 6]?
Its value is “INO”.

What about the “p38δ Max % Act” value [4] of the same compound?
Its value is 611%.

What about the “effect on p38δ MAP kinase activity, in words” value [4] of the same compound?
The value was “can activate”.

And the “p38δ concentration at which maximum increase in activity is observed” value [4]?
The value was “(100 μM)”.
